{"source": "patent US20040166575A1", "about": "“Inosine producing bacterium belonging to the genus Bacillus and method for producing inosine” (priority 2003, published 2004)", "key": {"[1]": {"tested_on": "Bacillus subtilis recombinant strain KMBS16 (purR, purA, deoD deficient)", "experiment": "Assay for degree of 6-ethoxypurine resistance: colony growth on minimal medium plate, parent strain", "format": "cell-based", "conditions": "for Relative growth degree / Diameter of colony: KMBS16; for Relative growth degree: colony diameter with 2000 mg/L 6-ethoxypurine / without ×100; for Diameter of colony: minimal medium plate containing 6-ethoxypurine (2000 μg/mL)"}, "[2]": {"tested_on": "6-ethoxypurine-resistant strain EP1 (AJ13937)", "experiment": "Assay for degree of 6-ethoxypurine resistance: colony growth on minimal medium plate, EP1 strain", "format": "cell-based, Bacillus subtilis", "conditions": "for Relative growth degree / Diameter of colony: EP1; for Relative growth degree: colony diameter with 2000 mg/L 6-ethoxypurine / without ×100; for Diameter of colony: minimal medium plate containing 6-ethoxypurine (2000 μg/mL)"}, "[3]": {"tested_on": "6-ethoxypurine-resistant strain EP2", "experiment": "Assay for degree of 6-ethoxypurine resistance: colony growth on minimal medium plate, EP2 strain", "format": "cell-based, Bacillus subtilis", "conditions": "for Relative growth degree / Diameter of colony: EP2; for Relative growth degree: colony diameter with 2000 mg/L 6-ethoxypurine / without ×100; for Diameter of colony: minimal medium plate containing 6-ethoxypurine (2000 μg/mL)", "protocol": "Relative growth degree (%)=[colony diameter (mm) observed in the medium containing 6-ethoxypurine]/[colony diameter (mm) observed in the medium not containing 6-ethoxypurine]×100\nThe Bacillus subtilis recombinant strain KMBS16 deficient in the purine operon repressor gene (purR), succinyl-AMP synthase gene (purA) and purine nucleoside phosphorylase gene (deoD) was treated with 400 μg/ml of nitrosoguanidine (NTG) at 37° C. for 30 minutes. Then, the NTG-treated cell suspension was spread on a minimal medium (20 g/L of glucose, 5 g/L of ammonium chloride, 4 g/L of potassium dihydrogenphosphate, 0.01 g/L of ferrous sulfate, 0.01 g/L of manganese sulfate, 0.5 g/L of sodium citrate, 1.0 g/L of L-glutamic acid, 0.1 g/L of adenine, 50 mg/L of tryptophan, pH 7.0) plate containing 2000 mg/L of 6-ethoxypurine, and the cells were cultured at 37° C. for 24 hours. […] The EP1 strain was given a private number of AJ13937. This strain was deposited at the independent administrative agency, National Institute of Advanced Industrial Science and Technology, International Patent Organism Depositary (Tsukuba Central 6, 1-1, Higashi 1-Chome, Tsukuba-shi, Ibaraki-ken, 305-8566, Japan) on Dec. 25, 2001 and received an accession number of FERM P-18665. Then, it was transferred to an international deposit under the provisions of the Budapest Treaty on Jan. 14, 2004, and received an accession number of FERM BP-08595.\nDegree of 6-ethoxypurine resistance of the mutant strain obtained as described above was examined in detail. The parent strain and the mutant strain were adenine auxotrophic, and the drug used was a purine analogue. Therefore, the amount of adenine added to the minimal medium was limited to the required minimum level (2 mg/L in this example).\nThe 6-ethoxypurine-resistant strains (EP1 strain and EP2 strain) and the parent strain KMBS16 were each inoculated into the minimum liquid medium and cultured overnight at 34° C. The cells were separated from the culture broth by centrifugation, washed three times with the minimal medium and suspended again in the same medium. The suspension was appropriately diluted with the same medium and spread on a minimal medium plate and a minimal medium plate containing 2000 mg/L of 6-ethoxypurine, and the cells were cultured at 34° C. […] The culture was continued even thereafter, and diameters of several single colonies were measured after […] to 66 hours. An average of colony diameters was calculated for each strain, and the relative growth degree was calculated according to the aforementioned equation.\nIn the tables, the symbol “−” means that no colony could be confirmed, and the symbol “±” means that since the colonies were indefinite, the diameters could not be measured."}}, "note": "Values joined by “and” are separate entries in the source; they are usually repeats but may differ in a detail not shown here. Identical values can stand only once.", "data": [{"smiles": "CCOc1ncnc2nc[nH]c12", "note": "[6-ethoxypurine]", "values": [{"measurement": "Relative growth degree", "setting": "[1]; 0 hr", "result": 0, "unit": "%"}, {"measurement": "Relative growth degree", "setting": "[1]; 42 hr", "result": "50.0% and 40.0%"}, {"measurement": "Relative growth degree", "setting": "[1]; 45 hr", "result": "58.3% and 41.7%"}, {"measurement": "Relative growth degree", "setting": "[1]; 48 hr", "result": "66.7% and 50.0%"}, {"measurement": "Relative growth degree", "setting": "[1]; 52 hr", "result": 66.7, "unit": "%"}, {"measurement": "Relative growth degree", "setting": "[1]; 66 hr", "result": "62.5% and 50.0%"}, {"measurement": "Diameter of colony", "setting": "[1]; 34° C., 28 hr", "result": "−"}, {"measurement": "Diameter of colony", "setting": "[1]; 34° C., 42 hr", "result": "0.50 mm and 0.40 mm"}, {"measurement": "Diameter of colony", "setting": "[1]; 34° C., 45 hr", "result": "0.70 mm and 0.50 mm"}, {"measurement": "Diameter of colony", "setting": "[1]; 34° C., 48 hr", "result": "1.00 mm and 0.75 mm"}, {"measurement": "Diameter of colony", "setting": "[1]; 34° C., 52 hr", "result": 1.00, "unit": "mm"}, {"measurement": "Diameter of colony", "setting": "[1]; 34° C., 66 hr", "result": "1.25 mm and 1.00 mm"}, {"measurement": "colony formation after 24 hours", "setting": "[1]; parent strain KMBS16, minimal medium plate containing 2000 mg/L of 6-ethoxypurine, 34° C., 24 hours", "result": "no colony was confirmed"}, {"measurement": "Relative growth degree", "setting": "[2]; 0 hr", "result": 0, "unit": "%"}, {"measurement": "Relative growth degree", "setting": "[2]; 42 hr", "result": "80.0% and 100.0%"}, {"measurement": "Relative growth degree", "setting": "[2]; 45 hr", "result": 83.3, "unit": "%"}, {"measurement": "Relative growth degree", "setting": "[2]; 48 hr", "result": 80.0, "unit": "%"}, {"measurement": "Relative growth degree", "setting": "[2]; 52 hr", "result": 100.0, "unit": "%"}, {"measurement": "Diameter of colony", "setting": "[2]; 34° C., 28 hr", "result": "±"}, {"measurement": "Diameter of colony", "setting": "[2]; 34° C., 42 hr", "result": "1.00 mm and 0.80 mm"}, {"measurement": "Diameter of colony", "setting": "[2]; 34° C., 45 hr", "result": "1.20 mm and 1.00 mm"}, {"measurement": "Diameter of colony", "setting": "[2]; 34° C., 48 hr", "result": "1.50 mm and 1.20 mm"}, {"measurement": "Diameter of colony", "setting": "[2]; 34° C., 52 hr", "result": 1.50, "unit": "mm"}, {"measurement": "Diameter of colony", "setting": "[2]; 34° C., 66 hr", "result": "2.00 mm and 2.50 mm"}, {"measurement": "colony formation after 24 hours", "setting": "[2]; EP1 strain, minimal medium plate containing 2000 mg/L of 6-ethoxypurine, 34° C., 24 hours", "result": "minute colonies were confirmed"}, {"measurement": "Relative growth degree", "setting": "[3]; 0 hr", "result": 0, "unit": "%"}, {"measurement": "Relative growth degree", "setting": "[3]; 42 hr", "result": 100.0, "unit": "%"}, {"measurement": "Diameter of colony", "setting": "[3]; 34° C., 28 hr", "result": "±"}, {"measurement": "Diameter of colony", "setting": "[3]; 34° C., 42 hr", "result": 1.00, "unit": "mm"}, {"measurement": "Diameter of colony", "setting": "[3]; 34° C., 45 hr", "result": 1.20, "unit": "mm"}, {"measurement": "Diameter of colony", "setting": "[3]; 34° C., 48 hr", "result": 1.50, "unit": "mm"}, {"measurement": "Diameter of colony", "setting": "[3]; 34° C., 52 hr", "result": 1.50, "unit": "mm"}, {"measurement": "Diameter of colony", "setting": "[3]; 34° C., 66 hr", "result": 2.00, "unit": "mm"}, {"measurement": "colony formation after 24 hours", "setting": "[3]; EP2 strain, minimal medium plate containing 2000 mg/L of 6-ethoxypurine, 34° C., 24 hours", "result": "minute colonies were confirmed"}]}]}
